The source of these data is patent US20090069324A1, “CHEMICAL INHIBITORS OF BFL-1 AND RELATED METHODS” (The Burnham Institute, priority 2007, published 2009).

In experiment [1] the target is T1, Bfl-1 (Homo sapiens, UniProt Q16548).
T1 construct: lacking their C-terminal transmembrane domains (approximately last 20 amino-acids); made in house; host or cells: XL-1 Blue cells (E. coli), pGEX 4T-1
T1 sequence (Q16548 1-155 limits assumed): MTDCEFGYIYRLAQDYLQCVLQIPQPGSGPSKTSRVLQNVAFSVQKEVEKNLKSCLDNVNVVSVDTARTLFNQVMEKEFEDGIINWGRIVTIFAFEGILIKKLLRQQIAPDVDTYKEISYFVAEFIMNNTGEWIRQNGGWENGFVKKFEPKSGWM
Put plainly: Bfl-1 TR-FRET assay (FITC-Bid, Tb-anti-GST antibody). The following applies: Tables 3-5; read-out: Bfl-1 TR FRET IC50. Type of experiment: binding. How it is done: TR-FRET assay. For confirmation of FPA results, a TR-FRET assay utilizing terbium- (Tb-) labeled anti-GST antibody (Th-Ab) was developed. […] The reaction mixture was preincubated for 1 h, and TR-fluorescence (TRF) was measured on an M5 plate reader (Molecular Devices) using excitation at 340 nm and emission at […]. The measurements were averaged from 5 readings during 1 ms after an initial delay 0.1 ms. TR-FRET signal was calculated as the ratio of TR-Fluorescence at 520 nm to TR-Fluorescence at […].
For Bfl-1 TR-FRET assays, Bfl-1 protein and FITC-Bid peptide (FITC-Ahx-[…]) (SEQ ID NO: 1) were utilized. Terbium-anti-GST antibody (Tb-anti-GST Ab) was obtained from Invitrogen (San Diego Calif.). The assay buffer contained 25 mM Bis-Tris, pH 7.0, 1 mM TCEP, and 0.005% Tween 20. The Tb-Ab buffer contained 2.5 nM Tb-anti-GST antibody in assay buffer. The Bfl-1/Th-Ab working solution contained 5 nM Bfl-1 in Th-Ab assay buffer. The solution was prepared fresh and kept on ice prior to use. The FITC-Bid working solution contained 5.6 nM FITC-Bid in assay buffer.
For the Bfl-1 TR-FRET dose-response screening protocol, dose-response curves contained 10 concentrations of compounds obtained using 2-fold serial dilution. Compounds were serially diluted in 100% DMSO, and then diluted with water to 10% final DMSO concentration. A 4 μl aliquot of compounds in 10% DMSO was transferred into columns 3-22 of Greiner 384-well white small-volume plates. Columns 1-2 and 23-24 contained 4 μL of 10% DMSO.
Columns 1-2 were reserved for positive controls, and 8 μL of Th-Ab buffer was added using a WellMate bulk dispenser (Matrix). An aliquot of 8 μL of Bfl-1/Th-Ab working solution was added to columns 3-24 of Greiner 384 well white plates using a WellMate bulk dispenser (Matrix). Columns 23-24 represented negative control wells. Plates were incubated for 1 h at 4° C. An 8 μL aliquot of freshly prepared FITC-Bid working solution was added to the whole plate using WellMate bulk dispenser (Matrix). Plates were incubated for 4 h at room temperature protected from direct light. Fluorescence was measured on the M5 plate reader (excitation: 340 nm, emission: 490 and 520 nm, cutoff: 475 and 515 nm, respectively) in Time Resolved (TR) mode with signal integrated for 1 ms after initial delay of 0.1 ms. TR-FRET signal was calculated as the ratio of TR-Fluorescence at 520 nm to TR-Fluorescence at 490 nm. Data analysis was performed using a sigmoidal dose-response equation through non-linear regression.

In experiment [2] the target is T1, Bfl-1. The experiment is described as follows: Bfl-1 fluorescence polarization assay (FPA/FP), competition with FITC-Bid BH3 peptide. It is filed as binding. The following applies: for Bfl-1 FP assay, activity in words: Bfl-1/FITC-Bid. How it is done: Fluorescence polarization assays (FPA). To determine the binding affinity of anti-apoptotic Bcl-2 polypeptides to FITC-conjugated Bid BH3 peptide, fluorescence polarization assays (FPAs) were performed according to published procedures (Zhai et al., Biochem. J. 376:229-236 (2003)). […] Fluorescence polarization was measured after 10 min using an Analyst™ AD Assay Detection System (LJL Biosystem, Sunnyvale, Calif.) in phosphate-buffered saline (PBS) (pH 7.4). The IC50 determinations were performed using GraphPad Prism software (GraphPad, Inc., San Diego, Calif.).
Competition assays. Using the same procedure outlined above, 100 nM of GST-Bfl-1 protein were incubated with the compounds at 50 μM concentration for 30 min. Then, 5 nM of FITC-Bid BH3 peptide was added. Fluorescence polarization was measured after 10 min. […]

One may read the IC50 as the concentration that gives 50% inhibition. For `CN(C)C1=C(Cl)C(=O)N(c2ccc(Cl)c(Cl)c2)C1=O` [CID-779754, 3-chloro-1-(3,4-dichlorophenyl)-4-(dimethylamino)-1H-pyrrole-2,5-dione], the IC50 was found to be 570 nM at Bfl-1 [1] and 0.46 µM at Bfl-1 [2] (Bfl-1 FP IC50 (uM), Tables 3-5). Moreover, the “Bfl-1 FP assay, activity in words” value was “binds reversibly and competes” on Bfl-1 [2]; “equipotent with CID-1180676” at Bfl-1 [2] (listed as MLS-0067130).
